Target: HPV-16 E2 protein (Human papillomavirus type 16, UniProt P03120)
Experiment: Determination of dissociation constants by surface plasmon resonance (Biacore 3000, captured GST-E2 fusion)
Type: binding
Conditions: steady state model, PBST containing 2% (v/v) DMF, read-out: dissociation constant
Experimental: Surface Plasmon Resonance Instrument. Surface plasmon resonance experiments were performed with a Biacore® 3000 Biosensor (Biacore AB, Uppsala, Sweden). To keep the instrument in good working condition, a series of washing steps were performed on a weekly basis. In addition to the prescribed maintenance washes, the fluidic system was primed three times in a row with the following reagents: 0.5% (w/v) SDS, 6 M urea, 1% (v/v) acetic acid, and 0.2 M NaHCO3. When not in use, a standby program injects water at a flow rate of 5 μL/minute to prevent salt build-up in the lines or integrated fluidic cartridge. Whenever running buffer was changed, the system was primed three times in order to equilibrate the sensor chip and the instrument.
Immobilization of anti-GST Antibody. A CM5 sensor chip was docked and the system was primed three times with filtered and degassed PBST containing 5% (v/v) DMF. Affinity purified and sterile filtered goat-anti-GST IgG (0.8 mg/mL in 150 mM NaCl) from the Biacore GST kit for fusion capture was diluted to 30 μg/mL in 10 mM sodium acetate, pH 5.0 (100 μL per immobilization). Two flow cells were activated with 1:1 NHS:EDC (N-hydroxysuccinimide:[…]) for 8 minutes at a flow rate of 5 μL/min using the “surface preparation: immobilization: amine coupling” wizard application. […]

Sequence of HPV-16 E2 protein (P03120 whole entry, the tested form may be a part): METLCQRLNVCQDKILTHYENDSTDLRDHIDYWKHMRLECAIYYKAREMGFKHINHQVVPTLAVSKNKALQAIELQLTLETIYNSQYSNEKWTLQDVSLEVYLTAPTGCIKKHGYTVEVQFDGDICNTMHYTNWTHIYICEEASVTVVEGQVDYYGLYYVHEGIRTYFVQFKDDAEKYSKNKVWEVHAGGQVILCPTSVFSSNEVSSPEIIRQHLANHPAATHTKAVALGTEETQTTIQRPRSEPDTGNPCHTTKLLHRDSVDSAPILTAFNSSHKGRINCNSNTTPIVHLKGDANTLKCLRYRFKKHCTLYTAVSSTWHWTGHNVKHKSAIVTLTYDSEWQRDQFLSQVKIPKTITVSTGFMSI

SMILES: Cn1nnnc1SC[C@@H]1C[C@H](c2ccc(CO)cc2)O[C@H](c2ccc(CN)cc2)O1 [compound 2]
- Kd: 2.7 nM

Source: patent publication US20050123902A1, “Human papillomavirus inhibitors” (priority 2003, published 2005)
